Assay results taken from PMC6661955, “Indole bearing thiadiazole analogs: synthesis, β-glucuronidase inhibition and molecular docking study” (BMC Chemistry, 2019).

Molecular target: T1, β-glucuronidase (Bos taurus, UniProt A3KMY8)
T1 sequence (A3KMY8 24-652): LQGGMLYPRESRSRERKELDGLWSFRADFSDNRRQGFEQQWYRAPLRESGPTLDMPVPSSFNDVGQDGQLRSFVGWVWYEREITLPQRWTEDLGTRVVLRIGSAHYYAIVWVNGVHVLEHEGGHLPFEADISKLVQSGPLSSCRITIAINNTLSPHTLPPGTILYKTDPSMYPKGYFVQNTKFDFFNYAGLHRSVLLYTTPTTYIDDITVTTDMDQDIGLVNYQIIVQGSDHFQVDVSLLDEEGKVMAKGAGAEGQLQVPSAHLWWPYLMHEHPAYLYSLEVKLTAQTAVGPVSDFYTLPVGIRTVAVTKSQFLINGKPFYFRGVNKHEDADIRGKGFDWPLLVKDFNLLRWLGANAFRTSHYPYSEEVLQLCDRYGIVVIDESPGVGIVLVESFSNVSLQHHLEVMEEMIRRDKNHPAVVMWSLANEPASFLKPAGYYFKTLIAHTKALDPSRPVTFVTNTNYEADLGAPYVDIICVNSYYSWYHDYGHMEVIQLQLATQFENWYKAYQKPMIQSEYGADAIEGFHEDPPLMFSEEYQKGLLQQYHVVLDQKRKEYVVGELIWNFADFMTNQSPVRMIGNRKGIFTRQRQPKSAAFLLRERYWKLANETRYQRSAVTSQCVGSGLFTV
Experiment: β-glucuronidase inhibition
Type: biochemical
Conditions: grouping in words

SMILES	activity group according to inhibitory IC50 values
Cc1ccc(-c2nnc(-c3ccc4[nH]ccc4c3)s2)cc1 [Compound 1, 2-(1H-indol-5-yl)-5-(p-tolyl)-1,3,4-thiadiazole]	low active
Cc1ccccc1-c1nnc(-c2ccc3[nH]ccc3c2)s1 [Compound 2, 2-(1H-indol-5-yl)-5-(o-tolyl)-1,3,4-thiadiazole]	low active
Oc1ccccc1-c1nnc(-c2ccc3[nH]ccc3c2)s1 [Compound 3, 2-(5-(1H-indol-5-yl)-1,3,4-thiadiazol-2-yl)phenol]	highly active
Oc1cccc(-c2nnc(-c3ccc4[nH]ccc4c3)s2)c1 [Compound 4, 3-(5-(indol-5-yl)-1,3,4-thiadiazol-2-yl)phenol]	moderate active
Oc1cccc(-c2nnc(-c3ccc4[nH]ccc4c3)s2)c1O [Compound 6, 3-(5-(1H-indol-5-yl)-1,3,4-thiadiazol-2-yl)benzene-1,2-diol]	highly active
Oc1ccc(-c2nnc(-c3ccc4[nH]ccc4c3)s2)cc1O [Compound 7, 4-(5-(1H-indol-5-yl)-1,3,4-thiadiazol-2-yl)benzene-1,2-diol]	highly active
Oc1ccc(-c2nnc(-c3ccc4[nH]ccc4c3)s2)cc1 [Compound 9, 4-(5-(1H-indol-5-yl)-1,3,4-thiadiazol-2-yl)phenol]	moderate active
Fc1ccc(-c2nnc(-c3ccc4[nH]ccc4c3)s2)cc1 [Compound 20, 2-(4-fluorophenyl)-5-(1H-indol-5-yl)-1,3,4-thiadiazole]	moderate active
